Measurements taken from patent publication US20190185518A9, “WARHEAD-CONTAINING PEPTIDOMIMETIC MACROCYCLES AS MODULATORS OF BFL-1” (AILERON Therapeutics, Inc., priority 2017, published 2019).
Positions of bridges follow the written chain, without caps; N, C: chain ends. Non-standard residues stand in square brackets, D forms with d. Residues, ends and D or L forms follow the SMILES beside them. Gly(1-adamantyl) = N[C@H](C(=O)O)C12CC3CC(CC(C3)C1)C2; hPhe = N[C@@H](CCc1ccccc1)C(=O)O; R8 = C=CCCCCCC[C@@](C)(N)C(=O)O; Cit = NC(=O)NCCC[C@H](N)C(=O)O; αMeL = CC(C)C[C@](C)(N)C(=O)O; S5 = C=CCCC[C@](C)(N)C(=O)O

How the values were obtained:
Bcl-2 = Bcl-2 (Homo sapiens, UniProt P10415); assay: Ki determination for Bcl-2 (BCL-2 family binding spectrum); details: read-out: Ki BCL-2
Sequence of Bcl-2 (P10415 whole entry, species assumed): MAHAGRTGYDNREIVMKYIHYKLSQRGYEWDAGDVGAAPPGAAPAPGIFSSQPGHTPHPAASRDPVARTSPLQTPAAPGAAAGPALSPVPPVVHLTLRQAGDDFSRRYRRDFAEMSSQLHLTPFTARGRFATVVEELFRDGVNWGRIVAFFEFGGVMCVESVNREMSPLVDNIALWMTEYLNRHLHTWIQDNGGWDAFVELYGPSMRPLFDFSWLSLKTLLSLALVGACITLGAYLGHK
Description: (§1) To assess the binding and affinity of compounds that antagonize the interaction between a peptide and an acceptor protein, a fluorescence polarization assay (FPA) utilizing a fluoresceinated peptidomimetic macrocycle derived from a peptidomimetic precursor sequence is used, for example. The FPA technique measures the molecular orientation and mobility using polarized light and fluorescent tracer. […] A compound that antagonizes the interaction between the fluoresceinated peptidomimetic macrocycle and an acceptor protein will be detected in a competitive binding FPA experiment.
(§2) For example, putative antagonist compounds (1 nM to 1 mM) and a fluoresceinated peptidomimetic macrocycle (25 nM) are incubated with the acceptor protein (50 nM) in binding buffer (140 mM NaCl, 50 mM Tris-HCL, pH 7.4) for 30 minutes at room temperature. Antagonist binding activity is measured, for example, by fluorescence polarization on a luminescence spectrophotometer (e.g. Perkin-Elmer LS50B). Kd values may be determined by nonlinear regression analysis using, for example, Graphpad Prism software (GraphPad Software, Inc., San Diego, Calif.).

Bcl-xL = Bcl-xL (Homo sapiens, UniProt Q07817); assay: Ki determination for Bcl-xL (BCL-2 family binding spectrum); details: read-out: Ki BCL-XL
Sequence of Bcl-xL (Q07817 whole entry, species assumed): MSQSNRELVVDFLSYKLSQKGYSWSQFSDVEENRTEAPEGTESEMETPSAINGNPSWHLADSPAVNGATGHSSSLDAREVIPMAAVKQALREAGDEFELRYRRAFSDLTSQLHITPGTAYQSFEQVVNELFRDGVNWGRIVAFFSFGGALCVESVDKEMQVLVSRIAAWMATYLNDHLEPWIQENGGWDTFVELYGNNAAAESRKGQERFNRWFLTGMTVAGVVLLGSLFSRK
Description: as §1, §2

Mcl-1 = Mcl-1 (Homo sapiens, UniProt Q07820); assay: Ki determination for Mcl-1 (BCL-2 family binding spectrum); details: read-out: Ki MCL-1
Sequence of Mcl-1 (Q07820 whole entry, species assumed): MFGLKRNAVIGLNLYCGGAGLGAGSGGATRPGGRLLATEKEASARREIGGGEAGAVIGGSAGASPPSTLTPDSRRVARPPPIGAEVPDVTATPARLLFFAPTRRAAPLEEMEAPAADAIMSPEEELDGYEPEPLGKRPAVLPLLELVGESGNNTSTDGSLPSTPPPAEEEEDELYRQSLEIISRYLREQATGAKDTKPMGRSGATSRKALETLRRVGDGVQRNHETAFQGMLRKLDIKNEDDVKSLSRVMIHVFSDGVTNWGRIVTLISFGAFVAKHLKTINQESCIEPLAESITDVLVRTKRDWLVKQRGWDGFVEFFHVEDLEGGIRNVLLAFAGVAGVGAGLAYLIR
Outline: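 Competitive fluorescence polarization assay in which compounds displace a fluoresceinated peptidomimetic macrocycle tracer from Mcl-1. Affinity constants were obtained by nonlinear regression.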

SMILES	Ki (Bcl-2)	Ki (Bcl-xL)	Ki (Mcl-1)
CC[C@H](C)[C@H](NC(C)=O)C(=O)N[C@@H](C)C(=O)N[C@@H](CCC(N)=O)C(=O)N[C@@H](C)C(=O)N[C@@H](CC(C)C)C(=O)N[C@@H](CCCNC(=N)N)C(=O)N[C@]1(C)CCCCCCC=CCCC[C@@](C)(C(=O)N[C@@H](Cc2ccc(O)cc2)C(=O)N[C@@H](C)C(=O)N[C@@H](C)C(N)=O)NC(=O)[C@H](CC(N)=O)NC(=O)[C@H](Cc2ccccc2)NC(=O)[C@H](C)NC(=O)[C@H](CC(=O)O)NC(=O)CNC(=O)[C@H]([C@@H](C)CC)NC1=O [compound 1632] (Ac-IAQALR[R8]IGDAFN[S5]YAA-NH2; staple 7-14)	> 1000 nM	> 1000 nM	
CC[C@H](C)[C@H](NC(C)=O)C(=O)N[C@@H](C)C(=O)N[C@@H](CCC(N)=O)C(=O)N[C@@H](C)C(=O)N[C@@H](CC(C)C)C(=O)N[C@@H](C)C(=O)N[C@]1(C)CCCCCCC=CCCC[C@@](C)(C(=O)N[C@@H](Cc2ccc(O)cc2)C(=O)N[C@@H](Cc2ccc(O)cc2)C(=O)N[C@@H](C)C(N)=O)NC(=O)[C@H](CC(N)=O)NC(=O)[C@H](Cc2ccccc2)NC(=O)[C@H](C)NC(=O)[C@H](CC(=O)O)NC(=O)CNC(=O)[C@H]([C@@H](C)CC)NC1=O [compound 1637] (Ac-IAQALA[R8]IGDAFN[S5]YYA-NH2; staple 7-14)	> 1000 nM	> 1000 nM	
CC[C@H](C)[C@H](NC(C)=O)C(=O)N[C@@H](C)C(=O)N[C@@H](CCC(N)=O)C(=O)N[C@@H](C)C(=O)N[C@@H](CC(C)C)C(=O)N[C@@H](CCCNC(=N)N)C(=O)N[C@]1(C)CCCCCCC=CCCC[C@@](C)(C(=O)N[C@@H](Cc2ccc(O)cc2)C(=O)N[C@@H](Cc2ccc(O)cc2)C(=O)N[C@@H](C)C(N)=O)NC(=O)[C@H](CC(N)=O)NC(=O)[C@H](C)NC(=O)[C@H](C)NC(=O)[C@H](CC(=O)O)NC(=O)CNC(=O)[C@H]([C@@H](C)CC)NC1=O [compound 1639] (Ac-IAQALR[R8]IGDAAN[S5]YYA-NH2; staple 7-14)	> 1000 nM	> 1000 nM	
CC[C@H](C)[C@H](NC(C)=O)C(=O)N[C@@H](Cc1c[nH]c2ccccc12)C(=O)N[C@H](C(=O)N[C@@H](C)C(=O)N[C@@H](CCC(N)=O)C(=O)N[C@@H](C)C(=O)N[C@H](C(=O)N[C@@H](CCCNC(=N)N)C(=O)N[C@]1(C)CCCCCC/C=C\CCC[C@@](C)(C(=O)N[C@@H](Cc2ccc(O)cc2)C(=O)N[C@@H](Cc2ccc(O)cc2)C(=O)N[C@@H](C)C(N)=O)NC(=O)[C@H](CC(N)=O)NC(=O)[C@H](Cc2ccccc2)NC(=O)[C@H](C)NC(=O)[C@H](CC(=O)O)NC(=O)CNC(=O)[C@H]([C@@H](C)CC)NC1=O)C12CC3CC(CC(C3)C1)C2)[C@@H](C)CC [compound 1689] (Ac-IWIAQA[Gly(1-adamantyl)]R[R8]IGDAFN[S5]YYA-NH2; staple (Z) 9-16)	> 1000 nM	110 nM	
CC[C@H](C)[C@H](NC(C)=O)C(=O)N[C@@H](Cc1c[nH]c2ccccc12)C(=O)N[C@H](C(=O)N[C@@H](Cc1ccccc1)C(=O)N[C@@H](C)C(=O)N[C@@H](C)C(=O)N[C@@H](CC(C)C)C(=O)N[C@@H](CCCNC(=N)N)C(=O)N[C@]1(C)CCCCCCC=CCCC[C@@](C)(C(=O)N[C@@H](Cc2ccc(O)cc2)C(=O)N[C@@H](Cc2ccc(O)cc2)C(=O)N[C@@H](C)C(N)=O)NC(=O)[C@H](CC(N)=O)NC(=O)[C@H](Cc2ccccc2)NC(=O)[C@H](C)NC(=O)[C@H](CC(=O)O)NC(=O)CNC(=O)[C@H]([C@@H](C)CC)NC1=O)[C@@H](C)CC [compound 1735] (Ac-IWIFAALR[R8]IGDAFN[S5]YYA-NH2; staple 9-16)	125 nM	110 nM	
CC[C@H](C)[C@H](NC(C)=O)C(=O)N[C@@H](Cc1c[nH]c2ccccc12)C(=O)N[C@H](C(=O)N[C@@H](C)C(=O)N[C@@H](C)C(=O)N[C@@H](C)C(=O)N[C@@H](CC(C)C)C(=O)N[C@@H](CCCNC(=N)N)C(=O)N[C@]1(C)CCCCCCC=CCCC[C@@](C)(C(=O)N[C@@H](Cc2ccc(O)cc2)C(=O)N[C@@H](Cc2ccc(O)cc2)C(=O)N[C@@H](C)C(N)=O)NC(=O)[C@H](CCC(=O)O)NC(=O)[C@H](Cc2ccccc2)NC(=O)[C@H](C)NC(=O)[C@H](CC(=O)O)NC(=O)CNC(=O)[C@H]([C@@H](C)CC)NC1=O)[C@@H](C)CC [compound 1749] (Ac-IWIAAALR[R8]IGDAFE[S5]YYA-NH2; staple 9-16)	30.7 nM		1.8 nM
CC[C@H](C)[C@H](NC(C)=O)C(=O)N[C@@H](Cc1c[nH]c2ccccc12)C(=O)N[C@H](C(=O)N[C@@H](C)C(=O)N[C@@H](CCC(N)=O)C(=O)N[C@@H](C)C(=O)N[C@@H](CC(C)C)C(=O)N[C@@H](CCCNC(=N)N)C(=O)N[C@]1(C)CCCCCCC=CCCC[C@@](C)(C(=O)N[C@@H](Cc2ccc(O)cc2)C(=O)N[C@@H](CCc2ccccc2)C(=O)N[C@@H](C)C(N)=O)NC(=O)[C@H](CC(N)=O)NC(=O)[C@H](Cc2ccccc2)NC(=O)[C@H](C)NC(=O)[C@H](CC(=O)O)NC(=O)CNC(=O)[C@H]([C@@H](C)CC)NC1=O)[C@@H](C)CC [compound 1757] (Ac-IWIAQALR[R8]IGDAFN[S5]Y[hPhe]A-NH2; staple 9-16)	30.7 nM		8 nM
CC[C@H](C)[C@H](NC(C)=O)C(=O)N[C@@H](Cc1c[nH]c2ccccc12)C(=O)N[C@H](C(=O)N[C@@H](C)C(=O)N[C@@H](CCC(N)=O)C(=O)N[C@@H](C)C(=O)N[C@@](C)(CC(C)C)C(=O)N[C@@H](CCCNC(=N)N)C(=O)N[C@]1(C)CCCCCCC=CCCC[C@@](C)(C(=O)N[C@@H](Cc2ccc(O)cc2)C(=O)N[C@@H](Cc2ccc(O)cc2)C(=O)N[C@@H](C)C(N)=O)NC(=O)[C@H](CC(N)=O)NC(=O)[C@H](Cc2ccccc2)NC(=O)[C@H](C)NC(=O)[C@H](CC(=O)O)NC(=O)CNC(=O)[C@H]([C@@H](C)CC)NC1=O)[C@@H](C)CC [compound 1767] (Ac-IWIAQA[αMeL]R[R8]IGDAFN[S5]YYA-NH2; staple 9-16)	> 1000 nM	> 1000 nM	
CC[C@H](C)[C@H](NC(C)=O)C(=O)N[C@@H](Cc1c[nH]c2ccccc12)C(=O)N[C@H](C(=O)N[C@@H](C)C(=O)N[C@@H](CCC(N)=O)C(=O)N[C@@H](C)C(=O)N[C@@H](C)C(=O)N[C@@H](CCCNC(N)=O)C(=O)N[C@]1(C)CCCCCCC=CCCC[C@@](C)(C(=O)N[C@@H](Cc2ccc(O)cc2)C(=O)N[C@@H](Cc2ccc(O)cc2)C(=O)N[C@@H](C)C(N)=O)NC(=O)[C@H](CC(N)=O)NC(=O)[C@H](Cc2ccccc2)NC(=O)[C@H](C)NC(=O)[C@H](CC(=O)O)NC(=O)CNC(=O)[C@H]([C@@H](C)CC)NC1=O)[C@@H](C)CC [compound 1771] (Ac-IWIAQAA[Cit][R8]IGDAFN[S5]YYA-NH2; staple 9-16)	> 1000 nM		> 1000 nM
CC[C@H](C)[C@H](NC(C)=O)C(=O)N[C@@H](Cc1c[nH]c2ccccc12)C(=O)N[C@H](C(=O)N[C@@H](C)C(=O)N[C@@H](CCC(N)=O)C(=O)N[C@@H](C)C(=O)N[C@@H](CC(C)C)C(=O)N[C@@H](CCCNC(N)=O)C(=O)N[C@]1(C)CCCCCCC=CCCC[C@@](C)(C(=O)N[C@@H](Cc2ccc(O)cc2)C(=O)N[C@@H](Cc2ccc(O)cc2)C(=O)N[C@@H](C)C(N)=O)NC(=O)[C@H](CC(N)=O)NC(=O)[C@H](C)NC(=O)[C@H](C)NC(=O)[C@H](CC(=O)O)NC(=O)CNC(=O)[C@H]([C@@H](C)CC)NC1=O)[C@@H](C)CC [compound 1773] (Ac-IWIAQAL[Cit][R8]IGDAAN[S5]YYA-NH2; staple 9-16)	> 1000 nM	> 1000 nM	
